Measurements as given in patent US20220088016A1, “CANCER TREATMENT USING MULTI-TARGETED KINASE INHIBITOR IN COMBINATION OF PROTEIN KINASE BIOMARKERS” (ZHEJIANG CROWNMAB BIOTECH CO. LTD., priority 2019, published 2022).

What was measured:
Experiment in all cases: Kinase profiling
Format in all cases: binding
MYO3B = biological target: T1, MYO3B (Homo sapiens, UniProt Q8WXR4); settings: read-out: % Ctrl @ 1000 nM
T1 construct: T7 phage fusion (said for most assays); made in house

CDKL5 = CDKL5 (Homo sapiens, UniProt O76039); settings: read-out: % Ctrl @ 1000 nM
PKN2 = PKN2 (Homo sapiens, UniProt Q16513); settings: read-out: % Ctrl @ 1000 nM
ARK5 = ARK5 (Homo sapiens, UniProt O60285); settings: read-out: % Ctrl @ 1000 nM
HIPK2 = HIPK2 (Homo sapiens, UniProt Q9H2X6); settings: read-out: % Ctrl @ 1000 nM
CDKL1 = CDKL1 (Homo sapiens, UniProt Q00532); settings: read-out: % Ctrl @ 1000 nM
CSNK1A1L = CSNK1A1L (Homo sapiens, UniProt Q8N752); settings: read-out: % Ctrl @ 1000 nM
LCK = LCK (Homo sapiens, UniProt P06239); settings: read-out: % Ctrl @ 1000 nM
PIK4CB = PIK4CB (Homo sapiens, UniProt Q9UBF8); settings: read-out: % Ctrl @ 1000 nM
[1] = biological target: JAK2 (JH1domain-catalytic) (Homo sapiens, UniProt O60674); settings: read-out: % Ctrl @ 1000 nM
MET (M1250T) = biological target: T2, MET (M1250T) (Homo sapiens, UniProt P08581, M1250T); settings: read-out: % Ctrl @ 1000 nM
T2 construct: T7 phage fusion (stated for most kinases of the panel only); made in house; host or cells: T7 phage in E. coli (BL21-derived) or HEK-293 cells

PAK2 = PAK2 (Homo sapiens, UniProt Q13177); settings: read-out: % Ctrl @ 1000 nM
RET (V804M) = RET (V804M) (Homo sapiens, UniProt P07949, V804M); settings: read-out: % Ctrl @ 1000 nM
PFPK5 (P.falciparum) = PFPK5 (P.falciparum) (Plasmodium falciparum, UniProt P61075); settings: read-out: % Ctrl @ 1000 nM
PIK3CA (I800L) = PIK3CA (I800L) (Homo sapiens, UniProt P42336, I800L); settings: read-out: % Ctrl @ 1000 nM
FLT3 (ITD) = test system: FLT3 (ITD)
NIK = biological target: T3, NIK (Homo sapiens, UniProt Q99558); settings: read-out: % Ctrl @ 1000 nM
T3 construct: T7 phage fusion (said for most assays); made in house

MEK3 = biological target: T4, MEK3 (Homo sapiens, UniProt P46734); settings: read-out: % Ctrl @ 1000 nM
T4 construct: T7 phage fusion (stated for most kinases of the panel only); made in house; host or cells: T7 phage in E. coli (BL21-derived) or HEK-293 cells

FLT3 (ITD, D835V) = test system: FLT3 (ITD, D835V)
OSR1 = biological target: T5, OSR1 (Homo sapiens, UniProt O95747); settings: read-out: % Ctrl @ 1000 nM
T5 construct: T7 phage fusion (said for most assays); made in house

ERBB2 = ERBB2 (Homo sapiens, UniProt P04626); settings: read-out: % Ctrl @ 1000 nM
PDGFRB = PDGFRB (Homo sapiens, UniProt P09619); settings: read-out: % Ctrl @ 1000 nM
[2] = biological target: RPS6KA5 (Kin.Dom.2-C-terminal) (Homo sapiens, UniProt O75582); settings: read-out: % Ctrl @ 1000 nM
DMPK = DMPK (Homo sapiens, UniProt Q09013); settings: read-out: % Ctrl @ 1000 nM
VPS34 = VPS34 (Homo sapiens, UniProt Q8NEB9); settings: read-out: % Ctrl @ 1000 nM
PIK3CA (M1043I) = PIK3CA (M1043I) (Homo sapiens, UniProt P42336, M1043I); settings: read-out: % Ctrl @ 1000 nM
MEK1 = biological target: T6, MEK1 (Homo sapiens, UniProt Q02750); settings: read-out: % Ctrl @ 1000 nM
T6 construct: T7 phage fusion (stated for most kinases of the panel only); made in house; host or cells: T7 phage in E. coli (BL21-derived) or HEK-293 cells

RIOK2 = RIOK2 (Homo sapiens, UniProt Q9BVS4); settings: read-out: % Ctrl @ 1000 nM
ADCK4 = ADCK4 (Homo sapiens, UniProt Q96D53); settings: read-out: % Ctrl @ 1000 nM
EPHB1 = EPHB1 (Homo sapiens, UniProt P54762); settings: read-out: % Ctrl @ 1000 nM
PIK3CA (Q546K) = PIK3CA (Q546K) (Homo sapiens, UniProt P42336, Q546K); settings: read-out: % Ctrl @ 1000 nM
BMPR1A = BMPR1A (Homo sapiens, UniProt P36894); settings: read-out: % Ctrl @ 1000 nM
EGFR (G719S) = EGFR (G719S) (Homo sapiens, UniProt P00533, G719S); settings: read-out: % Ctrl @ 1000 nM
FLT1 = FLT1 (Homo sapiens, UniProt P17948); settings: read-out: % Ctrl @ 1000 nM
ERBB3 = ERBB3 (Homo sapiens, UniProt P21860); settings: read-out: % Ctrl @ 1000 nM
CIT = CIT (Homo sapiens, UniProt O14578); settings: read-out: % Ctrl @ 1000 nM
MAP4K5 = MAP4K5 (Homo sapiens, UniProt Q9Y4K4); settings: read-out: % Ctrl @ 1000 nM
FLT3 = FLT3 (Homo sapiens, UniProt P36888); settings: read-out: % Ctrl @ 1000 nM
LIMK2 = LIMK2 (Homo sapiens, UniProt P53671); settings: read-out: % Ctrl @ 1000 nM

FLT1, sequence (P17948 27-1338): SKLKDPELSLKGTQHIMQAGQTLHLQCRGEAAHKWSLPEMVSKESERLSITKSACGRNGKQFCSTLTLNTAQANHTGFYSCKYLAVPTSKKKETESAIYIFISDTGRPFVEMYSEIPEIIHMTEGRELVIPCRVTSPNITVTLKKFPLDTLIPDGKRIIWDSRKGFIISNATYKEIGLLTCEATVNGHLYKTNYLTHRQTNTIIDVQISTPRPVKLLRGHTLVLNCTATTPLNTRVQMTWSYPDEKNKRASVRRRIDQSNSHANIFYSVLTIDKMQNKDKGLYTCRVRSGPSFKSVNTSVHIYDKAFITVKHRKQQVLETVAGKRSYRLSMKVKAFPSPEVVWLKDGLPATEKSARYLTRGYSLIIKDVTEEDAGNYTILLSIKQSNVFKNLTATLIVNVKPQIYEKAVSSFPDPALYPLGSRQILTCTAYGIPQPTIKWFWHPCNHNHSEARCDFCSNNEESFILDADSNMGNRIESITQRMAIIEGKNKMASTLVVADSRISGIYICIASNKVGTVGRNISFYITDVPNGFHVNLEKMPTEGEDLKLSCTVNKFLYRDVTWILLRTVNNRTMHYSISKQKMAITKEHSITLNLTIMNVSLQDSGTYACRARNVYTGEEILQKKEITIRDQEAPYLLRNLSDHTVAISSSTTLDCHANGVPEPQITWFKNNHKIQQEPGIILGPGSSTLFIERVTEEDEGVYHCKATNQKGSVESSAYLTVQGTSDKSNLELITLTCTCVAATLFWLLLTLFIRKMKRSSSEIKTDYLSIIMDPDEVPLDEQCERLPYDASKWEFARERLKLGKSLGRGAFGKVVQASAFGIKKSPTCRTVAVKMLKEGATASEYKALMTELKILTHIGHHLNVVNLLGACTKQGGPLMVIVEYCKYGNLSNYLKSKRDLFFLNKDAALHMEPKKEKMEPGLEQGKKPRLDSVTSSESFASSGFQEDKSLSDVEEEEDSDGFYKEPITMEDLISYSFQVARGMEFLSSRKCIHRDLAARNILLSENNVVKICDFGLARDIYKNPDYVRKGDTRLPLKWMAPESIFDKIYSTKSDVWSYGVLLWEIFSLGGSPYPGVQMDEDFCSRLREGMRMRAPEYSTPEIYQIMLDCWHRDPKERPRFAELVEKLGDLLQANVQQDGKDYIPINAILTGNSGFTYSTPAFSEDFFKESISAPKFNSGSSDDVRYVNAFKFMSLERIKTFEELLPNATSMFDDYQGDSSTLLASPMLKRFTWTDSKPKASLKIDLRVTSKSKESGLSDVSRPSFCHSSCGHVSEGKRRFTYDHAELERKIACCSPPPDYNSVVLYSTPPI
ERBB2, sequence (P04626 23-1255): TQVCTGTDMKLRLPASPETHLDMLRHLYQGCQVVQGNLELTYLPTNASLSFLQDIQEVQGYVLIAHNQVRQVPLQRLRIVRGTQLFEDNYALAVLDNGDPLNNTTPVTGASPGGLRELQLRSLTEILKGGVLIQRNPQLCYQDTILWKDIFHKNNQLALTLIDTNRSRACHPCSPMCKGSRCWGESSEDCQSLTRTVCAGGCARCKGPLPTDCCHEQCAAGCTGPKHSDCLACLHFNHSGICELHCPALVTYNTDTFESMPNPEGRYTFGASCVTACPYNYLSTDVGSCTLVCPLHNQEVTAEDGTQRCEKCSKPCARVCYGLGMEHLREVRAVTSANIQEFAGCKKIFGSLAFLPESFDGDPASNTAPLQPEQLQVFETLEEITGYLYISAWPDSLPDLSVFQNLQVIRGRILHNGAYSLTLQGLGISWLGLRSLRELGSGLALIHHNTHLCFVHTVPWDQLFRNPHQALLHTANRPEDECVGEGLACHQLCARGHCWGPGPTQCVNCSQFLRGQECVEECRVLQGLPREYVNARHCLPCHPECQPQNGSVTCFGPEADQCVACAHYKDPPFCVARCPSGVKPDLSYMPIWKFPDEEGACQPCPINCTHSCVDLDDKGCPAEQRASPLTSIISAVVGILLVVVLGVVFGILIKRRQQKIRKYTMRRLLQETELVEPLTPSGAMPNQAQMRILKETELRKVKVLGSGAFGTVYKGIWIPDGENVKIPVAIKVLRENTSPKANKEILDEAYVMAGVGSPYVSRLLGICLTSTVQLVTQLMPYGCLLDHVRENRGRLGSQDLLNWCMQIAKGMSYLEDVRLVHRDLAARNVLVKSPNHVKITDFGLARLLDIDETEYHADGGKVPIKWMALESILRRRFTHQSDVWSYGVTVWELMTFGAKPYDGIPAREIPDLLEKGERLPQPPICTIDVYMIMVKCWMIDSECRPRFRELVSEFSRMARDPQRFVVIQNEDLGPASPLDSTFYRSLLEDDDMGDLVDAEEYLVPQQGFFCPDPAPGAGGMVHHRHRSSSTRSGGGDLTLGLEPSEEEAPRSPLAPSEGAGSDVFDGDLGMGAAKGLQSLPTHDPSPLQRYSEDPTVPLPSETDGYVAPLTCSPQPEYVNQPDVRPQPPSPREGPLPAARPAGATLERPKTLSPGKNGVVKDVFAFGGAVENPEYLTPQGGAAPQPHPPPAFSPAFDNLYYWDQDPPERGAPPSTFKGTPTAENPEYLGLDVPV
PFPK5 (P.falciparum), sequence (P61075 whole entry): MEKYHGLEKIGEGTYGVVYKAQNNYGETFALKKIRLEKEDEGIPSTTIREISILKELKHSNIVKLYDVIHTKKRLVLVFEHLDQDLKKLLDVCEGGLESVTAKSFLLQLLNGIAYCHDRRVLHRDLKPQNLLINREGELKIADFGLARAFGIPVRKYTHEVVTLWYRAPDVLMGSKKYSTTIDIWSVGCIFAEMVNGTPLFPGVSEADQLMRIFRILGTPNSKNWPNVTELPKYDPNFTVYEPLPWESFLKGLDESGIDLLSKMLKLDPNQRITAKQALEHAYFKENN
T4 sequence (P46734 whole entry, the tested form may be a part): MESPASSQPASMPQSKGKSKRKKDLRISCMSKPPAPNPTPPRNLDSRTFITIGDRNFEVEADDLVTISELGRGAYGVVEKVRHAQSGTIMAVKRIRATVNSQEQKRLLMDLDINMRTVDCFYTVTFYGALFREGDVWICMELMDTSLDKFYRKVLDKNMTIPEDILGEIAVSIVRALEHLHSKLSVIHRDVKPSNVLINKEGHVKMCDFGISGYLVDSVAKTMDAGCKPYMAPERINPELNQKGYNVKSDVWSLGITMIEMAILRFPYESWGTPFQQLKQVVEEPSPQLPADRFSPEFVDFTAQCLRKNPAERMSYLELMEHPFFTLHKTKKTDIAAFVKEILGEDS
PIK4CB, sequence (Q9UBF8 whole entry): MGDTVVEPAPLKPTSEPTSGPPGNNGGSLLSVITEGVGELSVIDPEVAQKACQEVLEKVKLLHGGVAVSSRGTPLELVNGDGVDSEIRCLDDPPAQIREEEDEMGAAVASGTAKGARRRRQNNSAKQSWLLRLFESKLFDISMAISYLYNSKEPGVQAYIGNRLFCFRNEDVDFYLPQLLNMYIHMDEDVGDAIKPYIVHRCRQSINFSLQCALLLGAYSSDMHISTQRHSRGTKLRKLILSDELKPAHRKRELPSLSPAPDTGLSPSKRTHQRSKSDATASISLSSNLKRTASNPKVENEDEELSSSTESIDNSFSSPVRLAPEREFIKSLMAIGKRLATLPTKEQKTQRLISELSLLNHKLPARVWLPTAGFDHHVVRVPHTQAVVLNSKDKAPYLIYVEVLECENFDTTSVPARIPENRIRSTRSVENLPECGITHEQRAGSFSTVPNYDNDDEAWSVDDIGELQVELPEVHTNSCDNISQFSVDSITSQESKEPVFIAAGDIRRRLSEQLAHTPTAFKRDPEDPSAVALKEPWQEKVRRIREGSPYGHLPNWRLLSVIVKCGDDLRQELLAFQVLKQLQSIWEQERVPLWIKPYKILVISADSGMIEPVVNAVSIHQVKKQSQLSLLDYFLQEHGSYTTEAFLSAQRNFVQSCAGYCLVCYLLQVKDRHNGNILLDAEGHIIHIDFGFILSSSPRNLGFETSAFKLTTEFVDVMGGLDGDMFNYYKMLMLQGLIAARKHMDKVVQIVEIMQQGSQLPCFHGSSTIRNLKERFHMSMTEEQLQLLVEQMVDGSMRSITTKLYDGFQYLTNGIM
LCK, sequence (P06239 whole entry): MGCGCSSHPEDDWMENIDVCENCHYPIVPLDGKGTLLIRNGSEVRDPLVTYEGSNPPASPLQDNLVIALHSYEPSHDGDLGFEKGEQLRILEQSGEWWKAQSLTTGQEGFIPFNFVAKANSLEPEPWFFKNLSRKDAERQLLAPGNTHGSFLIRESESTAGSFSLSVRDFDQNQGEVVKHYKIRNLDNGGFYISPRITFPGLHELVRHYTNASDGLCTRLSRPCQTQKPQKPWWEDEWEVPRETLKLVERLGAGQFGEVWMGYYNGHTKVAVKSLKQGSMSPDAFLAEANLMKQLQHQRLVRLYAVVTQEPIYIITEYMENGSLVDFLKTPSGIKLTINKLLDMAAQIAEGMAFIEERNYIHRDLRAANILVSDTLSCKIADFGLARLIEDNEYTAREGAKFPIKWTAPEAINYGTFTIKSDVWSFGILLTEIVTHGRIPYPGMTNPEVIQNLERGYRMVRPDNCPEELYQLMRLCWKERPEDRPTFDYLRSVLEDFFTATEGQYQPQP
CDKL1, sequence (Q00532 whole entry): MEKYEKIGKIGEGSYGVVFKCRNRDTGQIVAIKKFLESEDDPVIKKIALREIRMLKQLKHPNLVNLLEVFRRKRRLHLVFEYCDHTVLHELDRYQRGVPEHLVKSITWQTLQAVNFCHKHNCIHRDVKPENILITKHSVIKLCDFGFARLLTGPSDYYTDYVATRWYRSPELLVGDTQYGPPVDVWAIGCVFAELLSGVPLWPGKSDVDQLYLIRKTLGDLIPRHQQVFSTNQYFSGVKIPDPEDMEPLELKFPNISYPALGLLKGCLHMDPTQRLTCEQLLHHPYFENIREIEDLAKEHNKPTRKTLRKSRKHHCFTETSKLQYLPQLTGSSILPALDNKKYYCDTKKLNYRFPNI

`Cc1cc(Oc2cc(NC(=O)C3CC3)ncn2)ccc1NC(=O)Nc1ccc(Cl)c(C(F)(F)F)c1` [CBT-102] gave a remaining activity at 1 µM (MYO3B) of 90%, a remaining activity at 1 µM (CDKL5) of 97% and a remaining activity at 1 µM (PKN2) of 100%. The remaining activity at 1 µM (ARK5) was 100%, the remaining activity at 1 µM (HIPK2) was 90% and the remaining activity at 1 µM (CDKL1) was 65%. It also gave a remaining activity at 1 µM (CSNK1A1L) of 100%, a remaining activity at 1 µM (LCK) of 15% and a remaining activity at 1 µM (PIK4CB) of 100%. It also gave a remaining activity at 1 µM [1] of 100%, a remaining activity at 1 µM (MET (M1250T)) of 84% and a remaining activity at 1 µM (PAK2) of 94%. For the same compound, the remaining activity at 1 µM (RET (V804M)) was 3.3%, the remaining activity at 1 µM (PFPK5 (P.falciparum)) was 100% and the remaining activity at 1 µM (PIK3CA (I800L)) was 91%. For the same compound, the “% Ctrl @ 1000 nM” value (FLT3 (ITD)) was 18%, the remaining activity at 1 µM (NIK) was 100% and the remaining activity at 1 µM (MEK3) was 90%. The “% Ctrl @ 1000 nM” value (FLT3 (ITD, D835V)) was 98%, the remaining activity at 1 µM (OSR1) was 96% and the remaining activity at 1 µM (ERBB2) was 93%. The remaining activity at 1 µM (PDGFRB) was 0%, the remaining activity at 1 µM [2] was 100% and the remaining activity at 1 µM (DMPK) was 93%. It also gave a remaining activity at 1 µM (VPS34) of 80%, a remaining activity at 1 µM (PIK3CA (M1043I)) of 100% and a remaining activity at 1 µM (MEK1) of 83%. It also gave a remaining activity at 1 µM (RIOK2) of 92%, a remaining activity at 1 µM (ADCK4) of 88% and a remaining activity at 1 µM (EPHB1) of 38%. For the same compound, the remaining activity at 1 µM (PIK3CA (Q546K)) was 100%, the remaining activity at 1 µM (BMPR1A) was 54% and the remaining activity at 1 µM (EGFR (G719S)) was 84%. It also gave a remaining activity at 1 µM (FLT1) of 0.8%, a remaining activity at 1 µM (ERBB3) of 100% and a remaining activity at 1 µM (CIT) of 87%. It also gave a remaining activity at 1 µM (MAP4K5) of 2.2%, a remaining activity at 1 µM (FLT3) of 2.3% and a remaining activity at 1 µM (LIMK2) of 92%.
